Test results reported in patent publication US12583867B2, “Pyridone derivative crystal form and preparation method and application therefor” (priority 2019, dated 2026).

How the values were obtained:
[1] = Solid state stability of the crystal form (XRPD, HPLC); assay type: physicochemical
Method: The crystal form F samples of the compound of formula (1) were placed at 60° C. for 30 days, at 25° C./92.5% RH for 30 days, and exposed to light for 15 days, respectively. The physical and chemical stability of the samples were tested by XRPD and HPLC.

[2] = Hygroscopicity by dynamic vapour sorption (DVS); assay type: physicochemical
Method: • Instrument model: Bruker D8 Venture single-crystal diffractometer • Light source: Mo target • X-ray: Mo—K (=0.71073 Å) • Detector: CMOS based detector • Resolution: 0.84 Å • Current and voltage: 50 kV, […] 2. X-Ray Powder Diffraction (XRPD) • Instrument model: PANalytical X'Pert3 Power • X-ray: Cu, Kα, Kα1 (Å): 1.540598; Kα2 (Å): 1.544426 • X-ray tube setting: 45 kV, 40 mA • Divergence slit: 1/8° • Scan pattern: continuous • Scanning range (2θ): 3°-40° • Scan step size (2θ): 0.0263° 3. Differential Scanning Calorimetry (DSC) • Instrument model: TA Q2000/2500 differential scanning calorimeter • Heating rate: 10° C./min • Temperature range: 25° C. to setting end-point temperature • Shielding gas: nitrogen 4. Thermogravimetric Analysis (TGA) • Instrument model: TA Q5000/5500 thermogravimetric analyzer • Heating rate: 10° C./min • Temperature range: room temperature to setting end-point temperature • Shielding gas: nitrogen 5. Dynamic Vapour Sorption (DVS) • Instrument model: SMS DVS Intrinsic vapour sorption analyzer • Temperature: 25° C. • RH range: 0% RH-95% RH • Shielding gas: nitrogen

[3] = Mechanical stability: XRPD before and after jet milling; assay type: physicochemical; details: jet milled to D90≤10 μm
From the text: In addition, 224.90 g of the above compound of the formula (1) was jet milled (feed pressure 0.4 to 0.5 MPa, milling pressure 0.18 to 0.22 MPa) to give 212.00 g sample with a particle size of D90≤10 μm.

[4] = test system: influenza A virus (H1N1, A/WSN/33); assay: Efficacy on mice, IAV mouse infection model; assay type: in vivo, BALB/c mice; details: 15 mpk orally twice a day; for Body weight change: infected mice, during the experiment; for Mean difference of virus titer compared with the menstruum group: mice, 5th day after virus infection
From the text: Female BALB/c mice were inoculated with influenza A virus (H1N1, A/WSN/33) by intranasal administration to establish an IAV mouse infection model. Menstruum, the compound of formula (1) (15 mpk) or oseltamivir phosphate (15 mpk) were orally administered twice a day. Animal weight and survival status were monitored daily during the test, and on the 5th day, some animals were sacrificed to take lung tissue for virus titer detection, and the remaining mice were used for survival rate monitoring. The in vivo anti-influenza virus efficacy of the test compound was determined by virus titer in lung tissue, mouse body weight change and survival rate.

[5] = Light (white light 4500 Lux, ultraviolet light 90 μw/cm^2)/15 days

Row | SMILES | Appearance and character ([1]; 25° C./92.5% RH/30 days) | Crystal form change ([1]; 25° C./92.5% RH/30 days) | Purity (area %) ([1]; 25° C./92.5% RH/30 days) | Purity/initial (%) ([1]; 25° C./92.5% RH/30 days) | Appearance and character ([1]; 60° C./30 days) | Crystal form change ([1]; 60° C./30 days) | Purity (area %) ([1]; 60° C./30 days) | Purity/initial (%) ([1]; 60° C./30 days) | Appearance and character ([1]; Initial) | Crystal form change ([1]; Initial) | Purity (area %) ([1]; Initial) | Appearance and character [1, 5] | Crystal form change [1, 5] | Purity (area %) [1, 5] [area %] | Purity/initial (%) [1, 5] [%] | Crystal form before and after the DVS test (XRPD) ([2]; DVS at 25° C.) | Moisture-absorption weight gain ([2]; DVS, 25° C./80% RH) [%] | Crystal form before and after milling (XRPD) [3] | Body weight change [4] | Mean difference of virus titer compared with the menstruum group [4]
1 | COC(=O)OCOc1c2n(ccc1=O)N([C@@H]1c3ccccc3SCc3c1ccc(F)c3F)[C@@H]1COC3(CC3)CN1C2=O [crystal form F] | White | No | 99.0 | 100.4 | White | No | 98.7 | 100.1 | White | No | 98.6 | White | No | 98.5 | 99.9 | did not change | 0.10 | does not change | – | –
2 | CCOC(=O)C1=C[C@@H](OC(CC)CC)[C@H](NC(C)=O)[C@@H](N)C1 [Oseltamivir phosphate, oseltamivir phosphate, reference compound] | – | – | – | – | – | – | – | – | – | – | – | – | – | – | – | – | – | – | remained stable during the experiment, had no significant decline | 3.46 Log10 (plaques number/gram of
3 | COC(=O)OCOc1c2n(ccc1=O)N([C@@H]1c3ccccc3SCc3c1ccc(F)c3F)[C@@H]1COC3(CC3)CN1C2=O [Compound of formula (1), (((R)-12′-((S)-7,8-difluoro-6,11-dihydrodibenzo[b,e]thiepin-11-yl)-6′,8′-dioxo-6′,8′,12′,12a′-tetrahydro-1′H,4′H-spiro[cyclopropane-1,3′-[1,4]oxazino[3,4-c]pyrido[2,1-f][1,2,4]triazin]-7′-yl)oxy)methyl methyl carbonate] | – | – | – | – | – | – | – | – | – | – | – | – | – | – | – | – | – | – | remained stable during the experiment, had no significant decline | 3.92 Log10 (plaques number/gram of
